Results published in paper PMC5914168 (ChemMedChem, 2017).
“And” between values parts separate entries of the source, which are not always exact repeats. Identical values can stand only once. Like-named read-outs stand apart in the source and are kept apart here.

Key:
[1] = biological target: BMP2K kinase domain (38-345) (Homo sapiens, UniProt Q9NSY1); assay: TR-FRET ligand binding displacement assay, BMP2K
[2] = biological target: AAK1 kinase domain (31-396) (Homo sapiens, UniProt Q2M2I8); assay: TR-FRET ligand binding displacement assay, AAK1
Sequence of AAK1 kinase domain (31-396) (Q2M2I8 31-396): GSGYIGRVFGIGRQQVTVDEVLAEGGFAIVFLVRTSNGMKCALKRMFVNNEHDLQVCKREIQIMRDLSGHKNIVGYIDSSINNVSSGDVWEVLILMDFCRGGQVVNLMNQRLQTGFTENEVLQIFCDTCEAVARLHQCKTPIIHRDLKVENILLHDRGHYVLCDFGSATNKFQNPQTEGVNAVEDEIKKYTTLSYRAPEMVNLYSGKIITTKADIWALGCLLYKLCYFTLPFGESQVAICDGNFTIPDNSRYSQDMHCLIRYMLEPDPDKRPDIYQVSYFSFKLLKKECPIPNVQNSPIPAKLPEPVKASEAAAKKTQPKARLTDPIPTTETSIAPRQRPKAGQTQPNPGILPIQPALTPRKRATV

[3] = biological target: STK16 kinase domain (13-305) (Homo sapiens, UniProt O75716); assay: TR-FRET ligand binding displacement assay, STK16
Sequence of STK16 kinase domain (13-305) (O75716 13-305): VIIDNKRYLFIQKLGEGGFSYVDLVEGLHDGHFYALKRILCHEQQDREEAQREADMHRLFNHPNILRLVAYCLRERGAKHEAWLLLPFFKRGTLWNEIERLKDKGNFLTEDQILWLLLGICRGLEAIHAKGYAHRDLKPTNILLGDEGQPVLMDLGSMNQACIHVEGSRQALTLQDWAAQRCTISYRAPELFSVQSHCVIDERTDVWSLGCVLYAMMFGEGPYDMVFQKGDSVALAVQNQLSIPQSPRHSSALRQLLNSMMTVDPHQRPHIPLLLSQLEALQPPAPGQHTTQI

[4] = biological target: T1, GAK kinase domain (12-347) (Homo sapiens, UniProt O14976); assay: TR-FRET ligand binding displacement assay, GAK; settings: for fold drop in GAK potency: relative to 1; for NAK selectivity (ratio of GAK Ki and Ki of nearest NAK family member): selectivity against the nearest NAK family member
T1 sequence (O14976 12-347): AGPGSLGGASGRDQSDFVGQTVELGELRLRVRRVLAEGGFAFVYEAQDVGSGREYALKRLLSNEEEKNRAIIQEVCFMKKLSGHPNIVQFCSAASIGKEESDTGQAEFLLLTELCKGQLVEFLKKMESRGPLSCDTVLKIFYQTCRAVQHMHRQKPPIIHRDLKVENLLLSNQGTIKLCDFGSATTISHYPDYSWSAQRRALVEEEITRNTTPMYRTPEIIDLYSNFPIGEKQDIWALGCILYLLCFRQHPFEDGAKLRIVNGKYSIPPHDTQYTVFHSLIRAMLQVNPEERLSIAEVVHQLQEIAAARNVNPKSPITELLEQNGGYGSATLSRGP

[5] = biological target: T2, N-terminal Nano Luciferase/GAK fusion (NL-GAK) in HEK293 cells (Homo sapiens, UniProt O14976); assay: GAK nanoBRET cellular target engagement assay; settings: for IC50: NanoBRET GAK IC50, HEK293 cells, 8-point dose response, average of 2 experiments
T2 sequence (O14976 1-1311): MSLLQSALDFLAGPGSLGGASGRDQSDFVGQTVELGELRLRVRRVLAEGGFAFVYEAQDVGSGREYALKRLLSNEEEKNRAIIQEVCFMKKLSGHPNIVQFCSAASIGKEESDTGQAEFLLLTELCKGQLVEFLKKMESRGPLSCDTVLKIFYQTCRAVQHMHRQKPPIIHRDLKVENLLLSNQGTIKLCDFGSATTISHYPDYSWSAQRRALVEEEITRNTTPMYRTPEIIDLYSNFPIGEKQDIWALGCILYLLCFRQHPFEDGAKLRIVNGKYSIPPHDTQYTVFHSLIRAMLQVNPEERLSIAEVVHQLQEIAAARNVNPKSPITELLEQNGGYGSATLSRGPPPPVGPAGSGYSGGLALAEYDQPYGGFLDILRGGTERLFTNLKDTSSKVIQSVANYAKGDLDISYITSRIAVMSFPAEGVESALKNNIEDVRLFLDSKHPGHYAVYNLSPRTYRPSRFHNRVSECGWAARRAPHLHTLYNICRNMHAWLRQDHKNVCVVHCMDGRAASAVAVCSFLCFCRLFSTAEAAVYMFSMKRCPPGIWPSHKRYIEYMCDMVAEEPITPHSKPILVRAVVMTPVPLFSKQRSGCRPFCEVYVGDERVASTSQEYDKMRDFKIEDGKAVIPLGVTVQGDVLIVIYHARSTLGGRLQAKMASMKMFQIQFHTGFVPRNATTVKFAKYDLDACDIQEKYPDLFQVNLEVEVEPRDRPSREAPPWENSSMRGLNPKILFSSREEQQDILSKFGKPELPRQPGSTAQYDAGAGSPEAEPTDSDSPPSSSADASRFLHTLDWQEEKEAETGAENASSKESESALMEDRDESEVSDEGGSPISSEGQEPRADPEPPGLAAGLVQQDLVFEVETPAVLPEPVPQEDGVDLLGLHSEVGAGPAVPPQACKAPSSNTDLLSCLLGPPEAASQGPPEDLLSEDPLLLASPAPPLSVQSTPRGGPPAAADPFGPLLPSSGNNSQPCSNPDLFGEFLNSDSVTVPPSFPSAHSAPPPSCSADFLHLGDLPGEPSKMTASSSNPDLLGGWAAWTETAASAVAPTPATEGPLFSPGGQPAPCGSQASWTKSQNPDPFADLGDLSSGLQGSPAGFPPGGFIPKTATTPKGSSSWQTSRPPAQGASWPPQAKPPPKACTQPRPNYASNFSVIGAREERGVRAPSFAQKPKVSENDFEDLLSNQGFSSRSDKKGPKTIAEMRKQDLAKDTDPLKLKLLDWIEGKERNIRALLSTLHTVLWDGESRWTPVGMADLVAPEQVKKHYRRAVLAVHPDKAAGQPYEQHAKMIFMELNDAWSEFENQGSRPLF

[6] = read-out: Binding displacement assay Ki BMP2K, TR-FRET, 16-point dose response

Sequence of BMP2K kinase domain (38-345) (Q9NSY1 38-345): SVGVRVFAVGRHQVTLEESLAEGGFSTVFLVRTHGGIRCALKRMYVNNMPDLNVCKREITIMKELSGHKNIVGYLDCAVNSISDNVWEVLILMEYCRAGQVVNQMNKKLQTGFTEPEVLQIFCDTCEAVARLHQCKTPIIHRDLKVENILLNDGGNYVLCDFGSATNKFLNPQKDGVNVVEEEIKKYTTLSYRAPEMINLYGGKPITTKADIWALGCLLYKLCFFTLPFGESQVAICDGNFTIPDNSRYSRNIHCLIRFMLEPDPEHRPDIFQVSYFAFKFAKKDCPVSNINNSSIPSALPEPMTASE

Molecule: 6,7-Dimethoxy-N-(3,4,5-trimethoxyphenyl)quinolin-4-amine [Compound 57]
- Ki [1, 6]: 19 µM

Molecule: COc1cc(Nc2ccnc3ccc(C(F)(F)F)cc23)cc(OC)c1OC [Compound 1, 6-(Trifluoromethyl)-N-(3,4,5-trimethoxyphenyl)quinolin-4-amine]
- Ki [2]: 54 µM
- Ki [1]: > 100 µM
- Ki [3]: 17 µM

Molecule: COc1cc(Nc2ccnc3ccc(C(F)(F)F)cc23)cc(OC)c1 [Compound 4, N-(3,5-Dimethoxyphenyl)-6-(trifluoromethyl)quinolin-4-amine]
- Ki [4]: 54 nM
- fold drop in GAK potency [4]: 10 fold
- NAK selectivity (ratio of GAK Ki and Ki of nearest NAK family member) [4]: 640
- Ki [2]: 34 µM
- Ki [1]: 85 µM
- Ki [3]: 52 µM

Molecule: COc1ccc(Nc2ccnc3ccc(C(F)(F)F)cc23)cc1OC [Compound 5, N-(3,4-Dimethoxyphenyl)-6-(trifluoromethyl)quinolin-4-amine]
- Ki [4]: 58 nM
- fold drop in GAK potency [4]: 10 fold
- NAK selectivity (ratio of GAK Ki and Ki of nearest NAK family member) [4]: 420
- Ki [2]: 24 µM
- Ki [1]: 44 µM
- Ki [3]: 24 µM

Molecule: COc1ccc(Nc2ccnc3ccc(C(F)(F)F)cc23)c(OC)c1 [Compound 6, N-(2,4-Dimethoxyphenyl)-6-(trifluoromethyl)quinolin-4-amine]
- Ki [4]: 860 nM
- NAK selectivity (ratio of GAK Ki and Ki of nearest NAK family member) [4]: 81
- Ki [2]: 71 µM
- Ki [1]: > 100 µM
- Ki [3]: 70 µM

Molecule: COc1ccc(OC)c(Nc2ccnc3ccc(C(F)(F)F)cc23)c1 [Compound 7, N-(2,5-Dimethoxyphenyl)-6-(trifluoromethyl)quinolin-4-amine]
- Ki [4]: 140 nM
- NAK selectivity (ratio of GAK Ki and Ki of nearest NAK family member) [4]: 420
- Ki [2]: 80 µM
- Ki [1]: > 100 µM
- Ki [3]: 58 µM

Molecule: COc1ccc(Nc2ccnc3ccc(C(F)(F)F)cc23)cc1 [Compound 8, N-(4-Methoxyphenyl)-6-(trifluoromethyl)quinolin-4-amine]
- Ki [4]: 730 nM
- fold drop in GAK potency [4]: 100 fold
- NAK selectivity (ratio of GAK Ki and Ki of nearest NAK family member) [4]: 26
- Ki [2]: 56 µM
- Ki [1]: 75 µM
- Ki [3]: 19 µM

Molecule: COc1ccccc1Nc1ccnc2ccc(C(F)(F)F)cc12 [Compound 10, N-(2-Methoxyphenyl)-6-(trifluoromethyl)quinolin-4-amine]
- Ki [1]: 11 µM

Molecule: FC(F)(F)c1ccc2nccc(Nc3ccc4c(c3)OCCO4)c2c1 [Compound 12, N-(2,3-Dihydrobenzo[b][1,4]dioxin-6-yl)-6-(trifluoromethyl)quinolin-4-amine]
- NAK selectivity (ratio of GAK Ki and Ki of nearest NAK family member) [4]: 14
- Ki [1]: 56 µM

Molecule: COc1cc(Nc2ncnc3ccc(C(F)(F)F)cc23)cc(OC)c1OC [Compound 13, 6-(Trifluoromethyl)-N-(3,4,5-trimethoxyphenyl)quinazolin-4-amine]
- NAK selectivity (ratio of GAK Ki and Ki of nearest NAK family member) [4]: 73

Molecule: COc1cc(Nc2ncnc3ccc(C(F)(F)F)cc23)cc(OC)c1 [Compound 14, N-(3,5-Dimethoxyphenyl)-6-(trifluoromethyl)quinazolin-4-amine]
- NAK selectivity (ratio of GAK Ki and Ki of nearest NAK family member) [4]: 26
- Ki ([2]; read-out: Binding displacement assay Ki AAK1, TR-FRET, 16-point dose response): > 100 µM
- Ki [1, 6]: > 100 µM
- Ki ([3]; read-out: Binding displacement assay Ki STK16, TR-FRET, 16-point dose response): 8 µM

Molecule: COc1ccc(Nc2ncnc3ccc(C(F)(F)F)cc23)cc1 [Compound 15, N-(4-Methoxyphenyl)-6-(trifluoromethyl)quinazolin-4-amine]
- NAK selectivity (ratio of GAK Ki and Ki of nearest NAK family member) [4]: 1.5
- Ki [1]: > 100 µM

Molecule: CS(=O)(=O)c1cccc(Nc2ccnc3ccc(C(F)(F)F)cc23)c1 [Compound 37, N-(3-(Methylsulfonyl)phenyl)-6-(trifluoromethyl)quinolin-4-amine]
- STK16 affinity relative to GAK [3]: ≤ 2 fold

Molecule: CC(C)(C)Oc1ccc(Nc2ccnc3ccc(C(F)(F)F)cc23)cc1 [Compound 39, N-(4-(tert-Butoxy)phenyl)-6-(trifluoromethyl)quinolin-4-amine]
- range of affinity across all four NAK family kinases ([4]; GAK, AAK1, BMP2K, STK16): ≤ 8 fold

Molecule: COc1cc(Nc2ccnc3ccccc23)cc(OC)c1OC [Compound 41, N-(3,4,5-Trimethoxyphenyl)quinolin-4-amine]
- IC50 [5]: 780 nM
- fold decrease in cellular potency ([5]; nanoBRET, relative to 1): 4 fold
- fold drop in GAK potency [4]: 10 fold
- NAK selectivity (ratio of GAK Ki and Ki of nearest NAK family member) [4]: >2500
- Ki [2]: > 100 µM
- Ki [1]: > 100 µM
- Ki [3]: > 100 µM

Molecule: COc1cc(Nc2ccnc3ccc(F)cc23)cc(OC)c1OC [Compound 42, 6-Fluoro-N-(3,4,5-trimethoxyphenyl)quinolin-4-amine]
- Ki [2]: 83 µM
- Ki [1]: > 100 µM
- Ki [3]: > 100 µM

Molecule: COc1cc(Nc2ccnc3cc(F)ccc23)cc(OC)c1OC [Compound 43, 7-Fluoro-N-(3,4,5-trimethoxyphenyl)quinolin-4-amine]
- Ki [2]: 44 µM
- Ki [1]: > 100 µM
- Ki [3]: > 100 µM

Molecule: COc1cc(Nc2ccnc3ccc(C(C)(C)C)cc23)cc(OC)c1OC [Compound 45, 6-(tert-Butyl)-N-(3,4,5-trimethoxyphenyl)quinolin-4-amine]
- IC50 [5]: 330 nM
- Ki [4]: 8.1 nM
- Ki [2]: > 100 µM
- Ki [1]: > 100 µM

Molecule: COc1cc(Nc2ccnc3ccc(C#N)cc23)cc(OC)c1OC [Compound 46, 4-((3,4,5-Trimethoxyphenyl)amino)quinoline-6-carbonitrile]
- IC50 [5]: ~350 nM and 350 nM

Molecule: COc1cc(Nc2ccnc3ccc(S(C)(=O)=O)cc23)cc(OC)c1OC [Compound 47, 6-(Methylsulfonyl)-N-(3,4,5-trimethoxyphenyl)quinolin-4-amine]
- Ki [1]: > 100 µM

Molecule: COc1ccc2nccc(Nc3cc(OC)c(OC)c(OC)c3)c2c1 [Compound 48, 6-Methoxy-N-(3,4,5-trimethoxyphenyl)quinolin-4-amine]
- Ki [2]: > 100 µM
- Ki [1]: > 100 µM
- Ki [3]: > 100 µM

Molecule: COc1ccc2c(Nc3cc(OC)c(OC)c(OC)c3)ccnc2c1 [Compound 50, 7-Methoxy-N-(3,4,5-trimethoxyphenyl)quinolin-4-amine]
- NAK selectivity (ratio of GAK Ki and Ki of nearest NAK family member) [4]: 22000
- Ki [2]: 58 µM
- Ki [1]: > 100 µM
- Ki [3]: > 100 µM

Molecule: COc1cc(Nc2ccnc3cc(C(F)(F)F)ccc23)cc(OC)c1OC [Compound 51, 7-(Trifluoromethyl)-N-(3,4,5-trimethoxyphenyl)quinolin-4-amine]
- NAK selectivity (ratio of GAK Ki and Ki of nearest NAK family member) [4]: 15000

Molecule: COc1cc(Nc2ccnc3cc(C#N)ccc23)cc(OC)c1OC [Compound 52, 4-((3,4,5-Trimethoxyphenyl)amino)quinoline-7-carbonitrile]
- NAK selectivity (ratio of GAK Ki and Ki of nearest NAK family member) [4]: 9300
- Ki [1]: > 100 µM

Molecule: C#Cc1cccc(Nc2ccnc3cc(OC)c(OC)cc23)c1 [Compound 55, N-(3-Ethynylphenyl)-6,7-dimethoxyquinolin-4-amine]
- Ki [4]: 3.5 nM
- NAK selectivity (ratio of GAK Ki and Ki of nearest NAK family member) [4]: 260
- Ki [2]: 0.9 µM
- Ki [1]: 2.4 µM
- Ki [3]: 19 µM

Molecule: COc1cc2nccc(Nc3cccc(C(C)=O)c3)c2cc1OC [Compound 56, 1-(3-((6,7-dimethoxyquinolin-4-yl)amino)phenyl)ethan-1-one]
- Ki [4]: 400 nM
- fold reduction in GAK activity ([4]; relative to 49): 100 fold
- Ki [2]: 0.26 µM
- Ki [1]: 0.68 µM
- Ki [3]: 1.5 µM
